One series addresses T1, 5HT-1a receptor (Homo sapiens, UniProt P08908).
T1 sequence (P08908 1-422): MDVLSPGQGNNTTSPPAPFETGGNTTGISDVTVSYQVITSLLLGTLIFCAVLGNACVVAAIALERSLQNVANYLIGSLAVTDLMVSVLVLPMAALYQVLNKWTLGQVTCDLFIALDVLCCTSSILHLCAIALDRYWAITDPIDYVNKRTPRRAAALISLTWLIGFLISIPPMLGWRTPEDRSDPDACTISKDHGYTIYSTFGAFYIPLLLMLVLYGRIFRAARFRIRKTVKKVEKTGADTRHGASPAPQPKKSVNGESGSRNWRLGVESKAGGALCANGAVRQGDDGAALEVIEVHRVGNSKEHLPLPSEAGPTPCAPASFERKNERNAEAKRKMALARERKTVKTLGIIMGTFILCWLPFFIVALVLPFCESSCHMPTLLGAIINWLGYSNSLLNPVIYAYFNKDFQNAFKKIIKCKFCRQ
The note with it: CBD at >10 uM; cited from earlier work.

The next series has as its system neuroprotection. The note with it: CBD at 1-10 uM; cited from earlier work.
For series [1] the following is noted: cited from earlier work.
The subject of a further series is Human keratinocyte. Particulars: CBD at 1-10 uM; cited from earlier work.
The next series addresses TRPV1 receptor (Homo sapiens, UniProt Q8NER1). The note with it: CBD at 1-10 uM; cited from earlier work.
Another series relates to Membrane. Particulars: CBD at 1-10 uM; cited from earlier work.
Series [2] concerns alpha1 adrenoreceptors and u-opioid receptors. The note with it: CBD at 1-10 uM; cited from earlier work.
For series [3] the following is noted: cited from earlier work. This is another data set of the same source.
The conditions of series [4]: plant material in a 110° C. oven, Taschwer; cited from earlier work.
The nature of series [5]: CBD plasma concentration after dosing. Format: in vivo. The method, then: The dosing of CBD for a given range of activity is predictable, Table 1. […] This is a desirable group of activities to select. CBD at one micromolar is equivalent to 0.3 ng per ML and 10 micromolar is equivalent to 3 ng per ML. AUC for CBD ranges widely for different subjects but reportedly averages about 4 ng hour per ML. A single dose of 4 mg would provide an average 0.16 ng/ml concentration over 24 hours. […] Thus in 80 mg dose would provide an average of 10 micromolar over 24 hours. A single dose would produce a single large peak with return to baseline within about 10 hours, again this is variable between individuals. It is known that as frequency of dosing increases the plasma concentration will approach a steady-state or constant value between doses, eliminating the large peaks and valleys associated with infrequent doses. A reasonable dosing schedule might be 25 mg CBD three times daily to achieve 75 mg daily, about 9.4 micromolar average, at the high end of the 1-10 uM range. Similarly a 2.5 mg dose every eight hours would yield an approximately 1 micromolar average concentration.

For series [6] the following is noted: for time to full conversion (decarboxylation): thin layer, 400 deg F.
For series [7] the following is noted: 110° C., FIG. 7, cited from earlier work.
The next series has as its target CB one receptor (Homo sapiens, UniProt P21554). The note with it: fold lower than THC; cited from earlier work.
A further series concerns the target CB 2 receptor (Homo sapiens, UniProt P34972). Particulars: fold higher than THC; cited from earlier work.
For a further series, the system named is onychomycosis. The note with it: cited from earlier work.
The conditions of series [8]: two-13-year-olds in one study; cited from earlier work.
The conditions of series [9]: aqueous; cited from earlier work.
Another series relates to pain patients. Particulars: initial studies in pain patients; cited from earlier work.
For series [10] the following is noted: cited from earlier work. The source holds these as a separate data set.
Setting [11] is: 100° C. and 110° C., FIG. 6C, 6D, sum decreases significantly.

Read-outs that look alike come from different tables or passages of the source.

CB one receptor, sequence (P21554 whole entry): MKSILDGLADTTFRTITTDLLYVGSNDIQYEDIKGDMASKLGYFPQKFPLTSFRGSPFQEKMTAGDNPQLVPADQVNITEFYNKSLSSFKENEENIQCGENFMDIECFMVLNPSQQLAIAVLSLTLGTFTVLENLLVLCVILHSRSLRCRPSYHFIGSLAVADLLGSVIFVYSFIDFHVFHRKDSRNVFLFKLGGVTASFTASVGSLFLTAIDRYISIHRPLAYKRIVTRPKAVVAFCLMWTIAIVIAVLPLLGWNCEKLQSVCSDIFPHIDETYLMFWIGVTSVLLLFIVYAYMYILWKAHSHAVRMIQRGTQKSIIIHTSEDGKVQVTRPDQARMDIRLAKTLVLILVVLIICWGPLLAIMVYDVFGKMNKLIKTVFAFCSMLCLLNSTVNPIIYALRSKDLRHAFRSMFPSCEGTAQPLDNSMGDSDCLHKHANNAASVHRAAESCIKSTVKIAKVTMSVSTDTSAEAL
TRPV1 receptor, sequence (Q8NER1 whole entry): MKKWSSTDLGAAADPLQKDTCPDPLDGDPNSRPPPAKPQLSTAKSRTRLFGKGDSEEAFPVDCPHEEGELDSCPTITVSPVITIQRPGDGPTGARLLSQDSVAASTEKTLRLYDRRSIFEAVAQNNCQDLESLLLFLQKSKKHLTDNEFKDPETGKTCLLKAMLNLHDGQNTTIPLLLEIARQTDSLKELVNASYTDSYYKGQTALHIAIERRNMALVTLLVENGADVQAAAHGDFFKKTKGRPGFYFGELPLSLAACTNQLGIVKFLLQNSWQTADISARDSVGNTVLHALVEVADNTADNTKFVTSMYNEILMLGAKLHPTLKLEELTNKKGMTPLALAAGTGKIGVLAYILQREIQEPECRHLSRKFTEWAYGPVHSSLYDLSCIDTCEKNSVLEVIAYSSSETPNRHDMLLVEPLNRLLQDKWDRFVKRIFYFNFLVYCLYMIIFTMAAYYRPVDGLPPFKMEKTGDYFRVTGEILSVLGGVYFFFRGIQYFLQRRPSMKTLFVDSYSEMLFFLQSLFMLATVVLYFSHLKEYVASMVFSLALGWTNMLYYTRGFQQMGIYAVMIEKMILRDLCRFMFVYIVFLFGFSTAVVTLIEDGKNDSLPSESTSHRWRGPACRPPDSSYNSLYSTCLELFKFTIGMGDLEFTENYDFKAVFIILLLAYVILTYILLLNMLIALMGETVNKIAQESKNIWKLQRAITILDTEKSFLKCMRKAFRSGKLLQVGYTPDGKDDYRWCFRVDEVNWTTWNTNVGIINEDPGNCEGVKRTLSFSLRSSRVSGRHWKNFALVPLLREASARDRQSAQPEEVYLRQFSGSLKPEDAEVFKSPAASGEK
CB 2 receptor, sequence (P34972 whole entry): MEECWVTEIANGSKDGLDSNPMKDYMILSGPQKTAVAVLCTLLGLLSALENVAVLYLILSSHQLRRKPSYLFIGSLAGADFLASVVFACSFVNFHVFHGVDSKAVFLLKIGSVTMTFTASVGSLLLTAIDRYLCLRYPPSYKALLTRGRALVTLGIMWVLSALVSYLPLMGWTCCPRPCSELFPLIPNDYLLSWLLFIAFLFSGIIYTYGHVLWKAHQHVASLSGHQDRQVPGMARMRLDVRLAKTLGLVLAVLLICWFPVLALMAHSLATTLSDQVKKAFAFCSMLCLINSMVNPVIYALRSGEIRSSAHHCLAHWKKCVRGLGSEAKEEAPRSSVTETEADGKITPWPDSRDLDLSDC

For `C=C(C)[C@@H]1CCC(C)=C[C@H]1c1c(O)cc(CCCCC)cc1O` [CBD, cannabidiol], the “action induced by CBD: Ativated 5HT-1a receptor” value on 5HT-1a receptor was 5HT-1a receptor. The “action induced by CBD: Increased or activated signs of neuroprotection” value in the series on neuroprotection is “Signs of neuroprotection”. Also, the “degradation judged from sum of CBDA and CBD concentration” value in series [1] (80° C. and 90° C., FIG. 6A, 6B) was “no degradation”; in [1] (setting [11]) it was “loss”. The “time to peak CBD” value in series [1] (110° C., cannabis oil in an open vial in an oven, FIG. 6D) was 90 min; in series [4], 135 min. Besides, in [1] (120° open reactor, FIG. 6E), the “loss of converted CBD compared to the closed reactor at the same temperature” value is listed as 45-55%. In the series on Human keratinocyte, the “action induced by CBD: Decreased human keratinocyte proliferation” value is given as “Human keratinocyte proliferation”. On TRPV1 receptor, the “action induced by CBD: Increased or activated TRPV1 receptor” value is given as “TRPV1 receptor”. Moreover, in the series on Membrane, the “action induced by CBD: Increased or activated Membrane stability” value is “Membrane stability”. In series [2], the “action induced by CBD: Decreased activation of alpha1 adrenoreceptors and u-opioid receptors” value was “Activation of alpha1 adrenoreceptors and u-opioid”. The “AUC for CBD, average” value in [3] (ranges widely for different subjects) was “about 4 ng hour per ML”. In [3] (single dose, variable between individuals), the “return to baseline after a single dose” value was no more than 10 h. The average concentration result in series [5] (2.5 mg dose every eight hours) is given as “approximately 1 micromolar”; in series [5] (25 mg CBD three times daily, 75 mg daily) it was “about 9.4 micromolar”. Also, the figures for the “average concentration over 24 hours” value in [5] (80 mg dose), in series [5] (8 milligrams dose) and in series [5] (single dose of 4 mg) were 10 µM, 0.32 ng per ML and 0.16 ng/mL, respectively. In addition, in [5] (8 milligrams dose), the “average concentration over 24 hours, as molarity” value was “about one micromolar”.
Regarding `C=C(C)[C@@H]1CCC(C)=C[C@H]1c1c(O)cc(CCCCC)c(C(=O)O)c1O` [CBDA], the “degradation judged from sum of CBDA and CBD concentration” value is given as “no degradation” in series [1] (80° C. and 90° C., FIG. 6A, 6B); “loss” in series [1] (setting [11]). The “loss of CBDA” value in [1] (120° C. open reactor, FIG. 6E, incomplete conversion to CBD) is reported as “rapid loss”. Further, in series [6], the “time to full conversion (decarboxylation)” value is listed as “fully converted in under a minute”.
Regarding `CCCCCc1cc(O)c(C/C=C(\C)CCC=C(C)C)c(O)c1C(=O)O` [CBGA], in series [7], the “consumption of CBGA” value was “complete consumption”.
Take `CCCCCc1cc(O)c(C/C=C(\C)CCC=C(C)C)c(O)c1` [CBG]: the “loss of total CBG” value in [7] (in the time decarboxylation is maximized) is 50%.
With `CCCCCc1cc(O)c2c(c1)OC(C)(C)c1ccc(C)cc1-2` [CBN], the “affinity for CB one receptor, lower than THC” value on CB one receptor is 2 fold. At CB 2 receptor, the “affinity for CB 2 receptor, higher than THC” value is 3 fold.
Consider `C=C1CC[C@H]2O[C@]2(C)CC[C@@H]2[C@@H]1CC2(C)C` [Caryophyllene Oxide], for which the “time in which effective in onychomycosis” value with onychomycosis (at 8% concentration) is on record as 15 days. Further, in the series with onychomycosis (in vivo), the “clinical onychomycosis efficacy versus reference drugs” value is “efficacy similar to cyclopiroxolamine and sulconazole”.
Consider `CCCCCc1cc(O)c2c(c1)OC(C)(C)[C@@H]1CC=C(C)C[C@@H]21` [Delta 8 THC], for which the psychoactive effect entry in series [8] is “no psychoactive effect”.
In the case of `CCCCCc1cc2c(c(O)c1C(=O)O)[C@@H]1C=C(C)CC[C@H]1C(C)(C)O2` [THCA], the “time to full conversion (decarboxylation)” value in series [6] is listed as “fully converted in under a minute”.
On to `CCCCCc1cc(O)c2c(c1)OC(C)(C)[C@@H]1CCC(C)=C[C@@H]21` [THC], for which the “concentration at which THC saturates in cannabis tea” value in series [9] is recorded as “about 10 mg/L”. Besides, the “loss of total THC (THC A+ THC) from the starting condition” value in [1] (120° C. closed reactor) is given as “approximately 10%”. Further, the “loss of THC relative to 120° C. closed reactor” value in [1] (open reactor, 100° C. (212° F.), FIG. 6C) is listed as “about 28%”. In addition, in series [1] (open reactor, 110° C. (230° F.), FIG. 6d), the “loss compared to that maximally achieved at 120° C. in the closed reactor” value is recorded as “about 28%”. For the same compound, the “analgesic effect in pain patients” value with pain patients is given as “provided analgesic effects”. Moreover, the THC remaining result in series [6] (20 min) is on record as “only a trace”. Moreover, the “anti-inflammatory activity relative to hydrocortisone” value in [10] (relative to hydrocortisone) is given as “two times”. Besides, the “anti-inflammatory activity relative to aspirin” value in [10] (times the activity of aspirin) is reported as 20 times.

The values are drawn from patent US11254633B2, “Cannabis thin layer decarboxylation” (priority 2018, dated 2022).
